Assay results: patent US6638956B2, “Pesticidal 1-arylpyrazoles” (Rhone-Poulenc, Inc., priority 1996, dated 2003)
Where “and” joins values, the source holds several entries; their conditions need not be identical. Equal values may be shown once.

**Q.** Which melting point does the source give for `Cc1c([S+](C)[O-])c(C=NO)nn1-c1c(Cl)cc(C(F)(F)F)cc1Cl` (stereo not drawn) [Compound 30, 1-[2,6-Dichloro-4-(trifluoromethyl)phenyl]-5-methyl-4-methylsulfinyl-1H-pyrazole-3-carboxaldehyde oxime] here?
**A.** Its melting point is 210 to 214 °C.

**Q.** With `C[S+]([O-])c1c(C=NO)nn(-c2c(Cl)cc(C(F)(F)F)cc2Cl)c1N` (stereo not drawn) [Compound 1, 5-Amino-1-[2,6-dichloro-4-(trifluoromethyl)phenyl]-4-methylsulfinyl-1H-pyrazole-3-carboxaldehyde oxime] as the compound, how does the melting point read?
**A.** The melting point was 219 to 221 °C (dec.).

**Q.** With `CC(=NO)c1nn(-c2c(Cl)cc(C(F)(F)F)cc2Cl)c(N)c1[S+](C)[O-]` (stereo not drawn) [Compound 39, 3-Acetyl-5-amino-1-[2,6-dichloro-4-(trifluoromethyl)phenyl]-4-methylsulfinyl-1H-pyrazole oxime] as the compound, how does the melting point read?
**A.** Its melting point is 68 to 71 °C.

**Q.** With `Nc1c(SC(F)(F)F)c(C=NO)nn1-c1c(Cl)cc(C(F)(F)F)cc1Cl` [Compound 6, 5-Amino-1-[2,6-dichloro-4-(trifluoromethyl)phenyl]-4-trifluoromethylthio-1H-pyrazole-3-carboxaldehyde oxime] as the compound, how does the melting point read?
**A.** Its melting point is 163 to 169 °C.

**Q.** With `C[S+]([O-])c1c(C(=N)NN)nn(-c2c(Cl)cc(C(F)(F)F)cc2Cl)c1N` (stereo not drawn) [Compound 69, 5-Amino-1-[2,6-dichloro-4-(trifluoromethyl)phenyl]-4-methylsulfinyl-N-amino-1H-pyrazole-3-carboximidamide] as the compound, how does the melting point read?
**A.** Its melting point is 210 °C.

**Q.** With `CON=Cc1nn(-c2c(Cl)cc(C(F)(F)F)cc2Cl)c(N)c1[S+](C)[O-]` (stereo not drawn) [Compound 17, 5-Amino-1-[2,6-dichloro-4-(trifluoromethyl)phenyl]-4-methylsulfinyl-1H-pyrazole-3-carboxaldehyde O-(methyl)oxime] as the compound, how does the melting point read?
**A.** Its melting point is 80 °C.

**Q.** For `N=C(NO)c1nn(-c2c(Cl)cc(C(F)(F)F)cc2Cl)c(C=NO)c1SC(F)(F)F` [Compound 23, 1-[2,6-Dichloro-4-(trifluoromethyl)phenyl]-N-hydroxy-5-hydroxyiminomethyl-4-trifluoromethylthio-1H-pyrazole-3-carboximidamide], which melting point is on record?
**A.** The melting point was 68 to 72 °C.

**Q.** For `C[S+]([O-])c1c(C(=N)NO)nn(-c2c(Cl)cc(C(F)(F)F)cc2Cl)c1N` (stereo not drawn) [Compound 44, 5-Amino-1-[2,6-dichloro-4-(trifluoromethyl)phenyl]-N-hydroxy-4-methylsulfinyl-1H-pyrazole-3-carboximidamide], which melting point is on record?
**A.** The melting point was 225 to 227 °C and 225 to 226 °C.

**Q.** Which melting point does the source give for `CCCCCCCC(=O)NNC(=N)c1nn(-c2c(Cl)cc(C(F)(F)F)cc2Cl)c(N)c1[S+](C)[O-]` (stereo not drawn) [Compound 71, 5-Amino-1-[2,6-dichloro-4-(trifluoromethyl)phenyl]-4-methylsulfinyl-N-(n-heptylcarbonyl)amino-1H-pyrazole-3-carboximidamide] here?
**A.** Its melting point is 122 °C.

**Q.** Which melting point does the source give for `N=C(NO)c1nn(-c2c(Cl)cc(C(F)(F)F)cc2Cl)c(N)c1S(=O)(=O)CCF` [Compound 52, 5-Amino-1-[2,6-dichloro-4-(trifluoromethyl)phenyl]-N-hydroxy-4-(2-fluoroethylsulfonyl)-1H-pyrazole-3-carboximidamide] here?
**A.** The melting point was 107 to 111 °C.

**Q.** Which melting point does the source give for `C[S+]([O-])c1c(C(=N)NO)nn(-c2c(Cl)cc(C(F)(F)F)cc2Cl)c1NCC(N)=O` (stereo not drawn) [Compound 59, 5-(Aminocarbonylmethylamino)-1-[2,6-dichloro-4-(trifluoromethyl)phenyl]-N-hydroxy-4-methylsulfinyl-1H-pyrazole-3-carboximidamide] here?
**A.** The melting point was 119 to 120 °C.

**Q.** For `CCNc1c([S+](C)[O-])c(C(=N)NO)nn1-c1c(Cl)cc(C(F)(F)F)cc1Cl` (stereo not drawn) [Compound 56, 1-[2,6-Dichloro-4-(trifluoromethyl)phenyl]-5-ethylamino-N-hydroxy-4-methylsulfinyl-1H-pyrazole-3-carboximidamide], which melting point is on record?
**A.** The melting point was 192 to 193 °C.

**Q.** Which melting point does the source give for `CC[S+]([O-])c1c(C=NO)nn(-c2c(Cl)cc(C(F)(F)F)cc2Cl)c1C` (stereo not drawn) [Compound 34, 1-[2,6-Dichloro-4-(trifluoromethyl)phenyl]-4-ethylsulfinyl-5-methyl-1H-pyrazole-3-carboxaldehyde oxime] here?
**A.** Its melting point is 210 to 213 °C.

**Q.** With `Nc1c(SC(F)F)c(C=NO)nn1-c1c(Cl)cc(C(F)(F)F)cc1Cl` [Compound 7, 5-Amino-1-[2,6-dichloro-4-(trifluoromethyl)phenyl]-4-difluoromethylthio-1H-pyrazole-3-carboxaldehyde oxime] as the compound, how does the melting point read?
**A.** Its melting point is 146 to 152 °C.

**Q.** Which melting point does the source give for `C[S+]([O-])c1cn(-c2c(Cl)cc(C(F)(F)F)cc2Cl)nc1C=NO` (stereo not drawn) [Compound 20, 1-[2,6-Dichloro-4-(trifluoromethyl)phenyl]-4-methylsulfinyl-1H-pyrazole-3-carboxaldehyde oxime] here?
**A.** The melting point was 239 to 240 °C.

**Q.** With `C[S+]([O-])c1c(C(=N)NO)nn(-c2c(Cl)cc(OC(F)(F)F)cc2Cl)c1N` (stereo not drawn) [Compound 45, 5-Amino-1-[2,6-dichloro-4-(trifluoromethoxy)phenyl]-N-hydroxy-4-methylsulfinyl-1H-pyrazole-3-carboximidamide] as the compound, how does the melting point read?
**A.** The melting point was 198 to 200 °C.

**Q.** For `CNc1c([S+](C)[O-])c(C=NO)nn1-c1c(Cl)cc(C(F)(F)F)cc1Cl` (stereo not drawn) [Compound 3, 1-[2,6-Dichloro-4-(trifluoromethyl)phenyl]-5-methylamino-4-methylsulfinyl-1H-pyrazole-3-carboxaldehyde oxime], which melting point is on record?
**A.** The melting point was 162 °C.

**Q.** Which melting point does the source give for `CS(=O)(=O)c1c(C(=N)NO)nn(-c2c(Cl)cc(C(F)(F)F)cc2Cl)c1N` [Compound 46, 5-Amino-1-[2,6-dichloro-4-(trifluoromethyl)phenyl]-N-hydroxy-4-methylsulfonyl-1H-pyrazole-3-carboximidamide] here?
**A.** Its melting point is 109 to 111 °C.

**Q.** Which melting point does the source give for `COC(=O)ON=Cc1nn(-c2c(Cl)cc(C(F)(F)F)cc2Cl)c(N)c1SC` [Compound 15, 5-Amino-1-[2,6-dichloro-4-(trifluoromethyl)phenyl]-4-methylthio-1H-pyrazole-3-carboxaldehyde O-(methoxycarbonyl)oxime] here?
**A.** Its melting point is 171 to 173 °C.

**Q.** For `C[S+]([O-])CCNc1c([S+](C)[O-])c(C(=N)NO)nn1-c1c(Cl)cc(C(F)(F)F)cc1Cl` (stereo not drawn) [Compound 65, 1-[2,6-Dichloro-4-(trifluoromethyl)phenyl]-4-methylsulfinyl-5-[2-(methylsulfinyl)ethylamino]-N-hydroxy-1H-pyrazole-3-carboximidamide], which melting point is on record?
**A.** The melting point was 150 to 151 °C.

**Q.** For `C#CCNc1c([S+](C)[O-])c(C(=N)NO)nn1-c1c(Cl)cc(C(F)(F)F)cc1Cl` (stereo not drawn) [Compound 67, 1-[2,6-Dichloro-4-(trifluoromethyl)phenyl]-4-methylsulfinyl-5-[(prop-2-ynyl)amino]-N-hydroxy-1H-pyrazole-3-carboximidamide], which melting point is on record?
**A.** The melting point was 194 to 196 °C.

**Q.** Which melting point does the source give for `CC(C)ON=Cc1nn(-c2c(Cl)cc(C(F)(F)F)cc2Cl)c(N)c1[S+](C)[O-]` (stereo not drawn) [Compound 24, 5-Amino-1-[2,6-dichloro-4-(trifluoromethyl)phenyl]-4-methylsulfinyl-1H-pyrazole-3-carboxaldehyde O-(isopropyl)oxime] here?
**A.** Its melting point is 128 to 130 °C.

**Q.** Which melting point does the source give for `CCSc1c(C(=N)NO)nn(-c2c(Cl)cc(C(F)(F)F)cc2Cl)c1N` [Compound 43, 5-Amino-1-[2,6-dichloro-4-(trifluoromethyl)phenyl]-N-hydroxy-4-ethylthio-1H-pyrazole-3-carboximidamide] here?
**A.** Its melting point is 170 to 175 °C.

**Q.** Which melting point does the source give for `CCNC1(c2c(Cl)cc(C(F)(F)F)cc2Br)NNC(C(=N)NO)=C1[S+](C)[O-]` (stereo not drawn) [Compound 62, 5-[2-Bromo-6-chloro-4-(trifluoromethyl)phenyl]-5-ethylamino-4-methylsulfinyl-N-hydroxy-1H-pyrazole-3-carboximidamide] here?
**A.** Its melting point is 213 to 214 °C.

**Q.** With `Cc1ccccc1C(=O)ON=Cc1nn(-c2c(Cl)cc(C(F)(F)F)cc2Cl)c(N)c1[S+](C)[O-]` (stereo not drawn) [Compound 11, 5-Amino-1-[2,6-dichloro-4-(trifluoromethyl)phenyl]-4-methylsulfinyl-1H-pyrazole-3-carboxaldehyde O-(2-methylbenzoyl)oxime] as the compound, how does the melting point read?
**A.** The melting point was 107 to 110 °C.

**Q.** For `CS(=O)(=O)c1c(C=NO)nn(-c2c(Cl)cc(C(F)(F)F)cc2Cl)c1N` [Compound 16, 5-Amino-1-[2,6-dichloro-4-(trifluoromethyl)phenyl]-4-methylsulfonyl-1H-pyrazole-3-carboxaldehyde oxime], which melting point is on record?
**A.** The melting point was 209.5 to 211 °C (dec.).

**Q.** Which melting point does the source give for `CSc1c(C(=N)NO)nn(-c2c(Cl)cc(C(F)(F)F)cc2Cl)c1N` [Compound 47, 5-Amino-1-[2,6-dichloro-4-(trifluoromethyl)phenyl]-N-hydroxy-4-methylthio-1H-pyrazole-3-carboximidamide] here?
**A.** The melting point was 207 to 208 °C.

**Q.** For `C[S+]([O-])c1c(C(=N)NO)nn(-c2ccc(C(F)(F)F)cc2Cl)c1N` (stereo not drawn) [Compound 68, 5-Amino-1-[2-chloro-4-(trifluoromethyl)phenyl]-4-methylsulfinyl-N-hydroxy-1H-pyrazole-3-carboximidamide], which melting point is on record?
**A.** The melting point was 238 to 239 °C.

**Q.** Which melting point does the source give for `CSc1c(C=NO)nn(-c2c(Cl)cc(C(F)(F)F)cc2Cl)c1N(C)C` [Compound 36, 1-[2,6-Dichloro-4-(trifluoromethyl)phenyl]-5-dimethylamino-4-methylthio-1H-pyrazole-3-carboxaldehyde oxime] here?
**A.** The melting point was 178 to 181 °C.

**Q.** For `C[S+]([O-])c1c(C(=N)NO)nn(-c2c(Cl)cc(C(F)(F)F)cc2Cl)c1NCCC#N` (stereo not drawn) [Compound 58, 5-[2-(Cyano)ethylamino]-1-[2,6-dichloro-4-(trifluoromethyl)phenyl]-N-hydroxy-4-methylsulfinyl-1H-pyrazole-3-carboximidamide], which melting point is on record?
**A.** Its melting point is 175 to 176 °C.

**Q.** With `CCS(=O)(=O)c1c(C(=N)NO)nn(-c2c(Cl)cc(C(F)(F)F)cc2Cl)c1N` [Compound 48, 5-Amino-1-[2,6-dichloro-4-(trifluoromethyl)phenyl]-N-hydroxy-4-ethylsulfonyl-1H-pyrazole-3-carboximidamide] as the compound, how does the melting point read?
**A.** Its melting point is 109 to 111 °C.

**Q.** With `CC[S+]([O-])c1c(C=NO)nn(-c2c(Cl)cc(OC(F)(F)F)cc2Cl)c1N` (stereo not drawn) [Compound 37, 5-Amino-1-[2,6-dichloro-4-(trifluoromethoxy)phenyl]-4-ethylsulfinyl-1H-pyrazole-3-carboxaldehyde oxime] as the compound, how does the melting point read?
**A.** Its melting point is 204 to 206 °C.

**Q.** For `N=C(NO)c1nn(-c2c(Cl)cc(C(F)(F)F)cc2Cl)c(C=O)c1SC(F)(F)F` [Compound 22, 1-[2,6-Dichloro-4-(trifluoromethyl)phenyl]-5-formyl-N-hydroxy-4-trifluoromethylthio-1H-pyrazole-3-carboximidamide], which melting point is on record?
**A.** The melting point was 72 to 75 °C.
